The target in test [1] is T1, Bromodomain-containing protein 4 (Homo sapiens, UniProt O60885). Nature of the test: Inhibition of GST-tagged BRD4 BD1 (unknown origin) using H4(1 to 21 residues) biotinylated peptide as substrate at 10 uM incubated for 3 hrs by HTFR assay.
Another test concerns the target Histone deacetylase 3 (Homo sapiens, UniProt O15379). Kind of test: Inhibition of recombinant human HDAC3 using Boc-Lys(Ac)-AMC as substrate preincubated for 15 mins followed by substrate addition and measured after 60 mins by fluorescence based assay.
Test [2] addresses T1, Bromodomain-containing protein 4. Nature of the test: Binding affinity to BRD4 BD2 (unknown origin) assessed as dissociation constant by ITC analysis. (ITC needs no label: the signal is the heat of the interaction.)
For test [3] the target is unchanged. Nature of the test: Binding affinity to BRD4 BD1 (unknown origin) assessed as dissociation constant by ITC analysis.
Test [4] deals with Protein cereblon/Bromodomain-containing protein 4 (Homo sapiens, UniProt O60885+Q96SW2). Kind of test: Protac activity at CRBN/BRD4 in human SUM149PT assessed as induction of BRD4 degradation incubated for 18 hrs by immunoblot analysis. In kind it is cell-based. A general note: In western blotting, separated proteins are transferred to a membrane and probed.
Test [5] concerns the target T1, Bromodomain-containing protein 4. Kind of test: Inhibition of poly His-tagged BRD4 BD2 (unknown origin) (348 to 455 residues) by TR-FRET assay. In general terms: In TR-FRET formats the signal depends on donor and acceptor labels being close together.
Test [6] shares this target. Nature of the test: Inhibition of poly His-tagged BRD4 BD1 (unknown origin) ([…] residues) by TR-FRET assay.
The species entered for a further test is Homo sapiens. Nature of the test: Selectivity for BRD4 BD1 (unknown origin) over BRD4 BD2 (unknown origin) assessed as fold change.
Test [7] deals with T1, Bromodomain-containing protein 4. Kind of test: Inhibition of poly His-tagged BRD4 BD1 (unknown origin) ([…] residues) by BROMOscan assay.
Test [8] has the same target. Nature of the test: Inhibition of poly His-tagged BRD4 BD2 (unknown origin) (348 to 455 residues) by BROMOscan assay.
The target of test [9] is Poly [ADP-ribose] polymerase 1 (Homo sapiens) (UniProt P09874). Kind of test: Inhibition of PARP1 (unknown origin) using NAD+ as substrate incubated for 60 mins by ELISA.
The target in test [10] is T1, Bromodomain-containing protein 4. Nature of the test: Inhibition of recombinant human BRD4 BD1 measured after 2 hrs by TR-FRET assay.
Test [11] has the same target. Kind of test: Inhibition of recombinant human BRD4 BD2 measured after 2 hrs by TR-FRET assay.
Test [12] concerns the target von Hippel-Lindau disease tumor suppressor/Bromodomain-containing protein 4 (Homo sapiens, UniProt O60885+P40337). Kind of test: Protac activity at BRD4/VHL E3 ligase in human SU-DHL-4 cells assessed as induction of BRD4 degradation incubated for 14 hrs by immunoblot analysis. In kind it is cell-based.
Test [13] can be described thus: Antiproliferative activity against human Triple-negative breast cancer cells assessed as cell growth inhibition incubated for 4 days by CellTiter Glo assay. In kind it is functional, cell-based. The following applies: 96 h.

Each structure is given as a SMILES string.

Results on eleven molecules are retold here after ChEMBL document CHEMBL5226295, “Targeting Bromodomain and Extraterminal Proteins for Drug Discovery: From Current Progress to Technological Development” (J Med Chem, 2021).

Sequence of von Hippel-Lindau disease tumor suppressor/Bromodomain-containing protein 4 (P40337 whole entry, looked up, other chains not shown): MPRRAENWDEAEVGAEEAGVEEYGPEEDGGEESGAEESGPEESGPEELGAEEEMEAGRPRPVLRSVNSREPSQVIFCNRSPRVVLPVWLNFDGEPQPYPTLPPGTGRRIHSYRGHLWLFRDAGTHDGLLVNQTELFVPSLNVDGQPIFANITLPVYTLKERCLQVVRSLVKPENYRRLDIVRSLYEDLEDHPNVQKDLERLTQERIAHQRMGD
Sequence of Protein cereblon/Bromodomain-containing protein 4 (Q96SW2 whole entry, looked up, other chains not shown, the tested form may be a part): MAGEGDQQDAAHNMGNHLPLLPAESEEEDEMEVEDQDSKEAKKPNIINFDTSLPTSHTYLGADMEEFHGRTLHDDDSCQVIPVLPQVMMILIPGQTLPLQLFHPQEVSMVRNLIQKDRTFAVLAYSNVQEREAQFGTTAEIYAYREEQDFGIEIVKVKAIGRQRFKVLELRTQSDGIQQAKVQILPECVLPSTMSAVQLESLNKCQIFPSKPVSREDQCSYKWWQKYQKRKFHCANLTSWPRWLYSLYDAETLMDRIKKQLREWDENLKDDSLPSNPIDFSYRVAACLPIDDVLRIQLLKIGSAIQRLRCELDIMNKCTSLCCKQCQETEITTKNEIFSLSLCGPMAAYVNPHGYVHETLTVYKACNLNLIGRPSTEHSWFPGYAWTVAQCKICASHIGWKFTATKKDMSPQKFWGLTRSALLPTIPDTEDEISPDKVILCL
Sequence of Poly [ADP-ribose] polymerase 1 (Homo sapiens) (P09874 whole entry): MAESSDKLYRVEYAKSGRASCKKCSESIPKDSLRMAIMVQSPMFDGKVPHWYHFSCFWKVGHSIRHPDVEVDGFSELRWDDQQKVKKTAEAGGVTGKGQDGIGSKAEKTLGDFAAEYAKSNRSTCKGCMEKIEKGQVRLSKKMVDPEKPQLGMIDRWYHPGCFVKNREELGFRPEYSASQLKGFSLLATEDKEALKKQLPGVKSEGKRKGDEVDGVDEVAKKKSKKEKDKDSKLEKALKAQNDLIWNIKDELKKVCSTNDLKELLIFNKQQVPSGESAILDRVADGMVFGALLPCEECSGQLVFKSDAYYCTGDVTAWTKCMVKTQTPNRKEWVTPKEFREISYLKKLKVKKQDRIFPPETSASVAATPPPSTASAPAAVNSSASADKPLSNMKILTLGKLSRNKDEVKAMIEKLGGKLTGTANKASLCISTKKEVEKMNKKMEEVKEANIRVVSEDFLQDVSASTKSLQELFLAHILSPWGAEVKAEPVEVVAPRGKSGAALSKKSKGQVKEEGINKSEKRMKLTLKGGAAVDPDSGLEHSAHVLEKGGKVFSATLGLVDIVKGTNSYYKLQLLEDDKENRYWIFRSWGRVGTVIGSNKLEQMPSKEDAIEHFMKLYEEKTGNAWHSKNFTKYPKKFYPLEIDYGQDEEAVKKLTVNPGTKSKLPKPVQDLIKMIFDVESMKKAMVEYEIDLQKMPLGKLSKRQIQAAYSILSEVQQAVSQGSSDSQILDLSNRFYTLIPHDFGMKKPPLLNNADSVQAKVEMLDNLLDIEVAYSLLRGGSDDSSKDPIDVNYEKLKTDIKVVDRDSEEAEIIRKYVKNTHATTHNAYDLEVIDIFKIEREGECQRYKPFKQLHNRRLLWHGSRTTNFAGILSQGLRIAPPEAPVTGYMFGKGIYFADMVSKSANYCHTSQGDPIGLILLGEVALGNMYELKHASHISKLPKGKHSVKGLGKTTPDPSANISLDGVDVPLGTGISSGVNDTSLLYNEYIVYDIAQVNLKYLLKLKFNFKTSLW
Sequence of Histone deacetylase 3 (O15379 whole entry): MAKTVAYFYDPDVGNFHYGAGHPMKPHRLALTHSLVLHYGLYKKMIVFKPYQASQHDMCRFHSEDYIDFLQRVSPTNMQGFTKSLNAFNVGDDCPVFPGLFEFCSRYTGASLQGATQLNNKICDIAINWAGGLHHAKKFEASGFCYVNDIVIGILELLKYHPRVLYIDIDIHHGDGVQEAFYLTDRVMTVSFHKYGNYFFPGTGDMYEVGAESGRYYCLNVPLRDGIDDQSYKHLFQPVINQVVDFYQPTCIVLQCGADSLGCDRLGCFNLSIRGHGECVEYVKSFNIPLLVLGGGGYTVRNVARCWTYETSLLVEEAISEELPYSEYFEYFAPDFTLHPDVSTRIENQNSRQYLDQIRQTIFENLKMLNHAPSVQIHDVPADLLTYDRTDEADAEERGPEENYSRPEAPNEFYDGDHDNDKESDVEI

As for `Cc1noc(C)c1-c1ccc2c(c1)C(Cc1ccc(F)cc1)CN2CCCCCCC(=O)NO` (configuration not stated), the inhibition (commonly the share of the control response that was lost under treatment) in [1] is 88%. Moreover, at Histone deacetylase 3, the IC50 (as a rule, the concentration that inhibits the measured activity by half) stood at 5 nM.

In the case of `CC1=C(C)C2C(c3ccc(Cl)cc3)N[C@@](C)(CC(=O)NCCOCCOCCOCC(=O)N[C@H](C(=O)N3C[C@H](O)C[C@H]3C(=O)NCc3ccc(-c4scnc4C)cc3)C(C)(C)C)c3nnc(C)n3C2S1` (some centres not stated), the Kd – broadly, the equilibrium constant for the complex coming apart – in test [2] came out at 120 nM; in [3], 382 nM.

For `Cc1sc2c(c1C)C(c1ccc(Cl)cc1)=N[C@@H](CC(=O)NCCCCNC(=O)COc1cccc3c1C(=O)N(C1CCC(=O)NC1=O)C3O)c1nnc(C)n1-2` (some centres not stated), the EC50 (commonly the concentration needed to bring the measured effect to its halfway point) in test [4] came out at 430 nM. On to `CC(=O)N1c2ccc(-c3cc[nH]n3)cc2[C@H](Nc2ccc(C#N)cc2)C[C@@H]1C`, for which the Kd stood at 2 nM in [5] and 301 nM in [6]. With `CC(=O)Nc1c(F)cc(C(=O)N[C@H]2CC[C@H](O)CC2)cc1O[C@@H](C)c1ccccc1`, the Selectivity ratio in the test listed under Homo sapiens was greater than 300. With `CC(=O)N[C@H](CSCCCCCCNC(=O)C[C@H]1N=C(c2ccc(Cl)cc2)c2c(sc(C)c2C)-n2c(C)nnc21)C(=O)N1C[C@@H](O)C[C@@H]1C(=O)NCc1ccc(-c2scnc2C)cc1`, the Kd in test [3] came out at 44 nM. In the case of `COC(=O)c1ccc(N[C@@H]2C[C@H](C)N(C(C)=O)c3ccc(-c4cccc(NC(C)=O)c4)cc32)cc1`, the IC50 in test [7] was determined as 27 nM; in test [8], 0.42 nM. The molecule `COc1cc(OC)c2c(=O)[nH]c(-c3ccc(OCCOc4ccccc4C(N)=O)cc3)nc2c1` yielded an inhibition in test [9] of less than 60%. Besides, the IC50 in test [10] is 440 nM; in test [11], 379 nM. With `COCc1nc2cnc3cc(-c4c(C)noc4C)c(OC[C@H]4CCNC4)cc3c2n1[C@H](C)c1ccccc1`, the Selectivity ratio in the test filed under Homo sapiens was greater than 130. `Cc1sc2c(c1C)C(c1ccc(Cl)cc1)=N[C@@H](CC(=O)NCCOCCOCCNC(=O)c1cccc(S(=O)(=O)Nc3ccc(C)c4c(C#N)c[nH]c34)c1)c1nnc(C)n1-2`: the DC50 (commonly the midpoint of the concentration-degradation curve) in [12] was found to be 10800 nM. Regarding `CCn1nc(C2CC2)cc1Nc1nc(C(=O)NCCCOCCOCCOCCCNc2cccc3c2C(=O)N(C2CCC(=O)NC2=O)C3=O)nc2[nH]c3cc(-c4c(C)noc4C)c(OC)cc3c12` (configuration not stated), the IC50 in test [13] was less than 10 nM.
